Measured values taken from US20050197350A1, “Novel quinoline, tetrahydroquinazoline, and pyrimidine derivatives and methods of treatment related to the use thereof” (TAISHO PHARMACEUTICAL CO., LTD., priority 2003, published 2005).
Like-named read-outs stand apart in the source and are kept apart here.

Test system: MCH receptors
Assay: MCH receptor activity class (method not given)
[1] = class by percent of control at 10^-7 M or IC50
[2] = class by percent of control at 10^−7 M or IC50
[3] = MCH receptor, class by percent of control at 10^-7 M or IC50
[4] = MCH receptor activity class 1-3 (percent of control at 10^-7 M or IC50)
[5] = class 1-3 by percent of control at 10^-7 M or IC50
[6] = activity class per percent of control at 10^-7 M or IC50

## CN(C)c1cc(N[C@H]2CC[C@@H](CNC(=O)Oc3ccccc3)CC2)nc2ccccc12 [compound 1572]
Activity class 1-3: percent of control at 10^-7 M or IC50
  class: 3 (Class 3 The value of percent of control at 10^−7 M was more than 60% or the value of IC50 was more than 200 nM.)

## COc1ccc(CN[C@H]2CC[C@@H](Nc3nccc(N(C)C)n3)CC2)c(OC)c1OC [compound 1215]
[1]
  class: 3 (Class 3 The value of percent of control at 10^−7 M was more than 60% or the value of IC50 was more than 200 nM.)

## COc1cc(OC)cc(C(=O)NC[C@H]2CC[C@@H](Nc3ncc(C)c(N(C)C)n3)CC2)c1 [compound 2694, N-[(cis-4-{[4-(dimethylamino)-5-methylpyrimidin-2-yl]amino}cyclohexyl)methyl]-3,5-dimethoxybenzamide]
[2]
  class: 1 (Class 1: The value of percent of control at 10^−7 M was less than 40% or the value of IC50 was less than 50 nM.)

## CN(C)c1cc(N[C@H]2CC[C@@H](NC(=O)c3ccc([N+](=O)[O-])cc3Cl)CC2)nc2ccccc12 [compound 102]
[3]
  class: 3 (Class 3 The value of percent of control at 10^−7 M was more than 60% or the value of IC50 was more than 200 nM.)

## CC(C)Oc1ccc(CNC[C@H]2CC[C@@H](Nc3nccc(N(C)C)n3)CC2)cc1 [compound 1277]
[1]
  class: 2 (Class 2: The value of percent of control at 10^−7 M was from 40% to 60% or the value of IC′50 was from 50 nM to 200 nM.)

## CC(CCN[C@H]1CC[C@@H](Nc2nccc(N(C)C)n2)CC1)c1ccccc1 (relative stereo) [compound 1226]
[1]
  class: 3 (Class 3 The value of percent of control at 10^−7 M was more than 60% or the value of IC50 was more than 200 nM.)

## CN(C)c1nc(N[C@H]2CC[C@@H](CNC(=O)Nc3ccc(F)c(Cl)c3)CC2)nc2c1CCCC2 [compound 2496]
[1]
  class: 3 (Class 3 The value of percent of control at 10^−7 M was more than 60% or the value of IC50 was more than 200 nM.)

## CN(C)c1ccnc(N[C@H]2CC[C@@H](CNCC=C(c3ccccc3)c3ccccc3)CC2)n1 [compound 1279]
[1]
  class: 1 (Class 1: The value of percent of control at 10^−7 M was less than 40% or the value of IC50 was less than 50 nM.)

## Cc1cc(N(C)C)nc(N[C@H]2CC[C@@H](C(=O)NCc3ccc(Cl)c(Cl)c3)CC2)n1 [Example 2581, cis-N-(3,4-dichlorobenzyl)-4-{[4-(dimethylamino)-6-methylpyrimidin-2-yl]amino}cyclohexanecarboxamide]
  class: 1

## CN(C)c1ccnc(N[C@H]2CC[C@@H](NC(=O)C3CC(=O)c4ccccc43)CC2)n1 (relative stereo) [compound 823]
[1]
  class: 3 (Class 3 The value of percent of control at 10^−7 M was more than 60% or the value of IC50 was more than 200 nM.)

## CCc1cccc(C(C)C)c1NC(=O)NC[C@H]1CC[C@@H](Nc2nc3c(c(N(C)C)n2)CCCC3)CC1 [compound 2468]
[4]
  class: 1 (Class 1: The value of percent of control at 10^−7 M was less than 40% or the value of IC50 was less than 50 nM.)

## Cc1cc(C)c(C(=O)C(=O)N[C@H]2CC[C@@H](Nc3nccc(N(C)C)n3)CC2)c(C)c1 [compound 914, N-(cis-4-{[4-(dimethylamino)pyrimidin-2-yl]amino}cyclohexyl)-2-mesityl-2-oxoacetamide]
[1]
  class: 2 (Class 2: The value of percent of control at 10^−7 M was from 40% to 60% or the value of IC′50 was from 50 nM to 200 nM.)

## CN(C)c1nc(N[C@H]2CC[C@@H](NC(=O)c3cccc(OC(F)(F)F)c3)CC2)nc2c1CCCC2 [compound 490]
[5]
  class: 2 (Class 2: The value of percent of control at 10^−7 M was from 40% to 60% or the value of IC′50 was from 50 nM to 200 nM.)

## CN(C)c1cc(N[C@H]2CC[C@@H](CNC(=O)c3csc4ccccc34)CC2)nc2ccccc12 [compound 218]
[1]
  class: 3 (Class 3 The value of percent of control at 10^−7 M was more than 60% or the value of IC50 was more than 200 nM.)

## CN(C)c1ccnc(N[C@H]2CC[C@@H](CNC(=O)Cc3cccc4ccccc34)CC2)n1 [compound 434]
[5]
  class: 1 (Class 1: The value of percent of control at 10^−7 M was less than 40% or the value of IC50 was less than 50 nM.)

## CN(C)c1nc(N[C@H]2CC[C@@H](NC(=O)C(CC(=O)c3ccccc3)c3c[nH]c4ccccc34)CC2)nc2c1CCCC2 (relative stereo) [compound 991]
[6]
  class: 2 (Class 2: The value of percent of control at 10^−7 M was from 40% to 60% or the value of IC′50 was from 50 nM to 200 nM.)

## CN(C)c1nc(N[C@H]2CC[C@@H](NC(=S)NCc3ccccc3Cl)CC2)nc2c1CCCC2 [compound 1759]
[1]
  class: 3 (Class 3 The value of percent of control at 10^−7 M was more than 60% or the value of IC50 was more than 200 nM.)

## CN(C)c1cc(N[C@H]2CC[C@@H](CNC(=O)c3cn(Cc4ccccc4)c4ccccc34)CC2)nc2ccccc12 [compound 805]
[1]
  class: 3 (Class 3 The value of percent of control at 10^−7 M was more than 60% or the value of IC50 was more than 200 nM.)

## CCOC(=O)c1ccccc1NC(=O)N[C@H]1CC[C@@H](Nc2nc3c(c(N(C)C)n2)CCCC3)CC1 [compound 1857]
[1]
  class: 3 (Class 3 The value of percent of control at 10^−7 M was more than 60% or the value of IC50 was more than 200 nM.)

## CN(C)c1nc(N[C@H]2CC[C@@H](NCCc3cccc(Cl)c3)CC2)nc2c1CCCC2 [compound 1482]
[1]
  class: 3 (Class 3 The value of percent of control at 10^−7 M was more than 60% or the value of IC50 was more than 200 nM.)

## CCOc1ccccc1NC(=S)N[C@H]1CC[C@@H](Nc2nccc(N(C)C)n2)CC1 [compound 2347]
[4]
  class: 3 (Class 3 The value of percent of control at 10^−7 M was more than 60% or the value of IC50 was more than 200 nM.)

## CN(C)c1nc(N[C@H]2CC[C@@H](NC(=S)Nc3ccccc3C(F)(F)F)CC2)nc2c1CCCC2 [compound 1969]
[3]
  class: 3 (Class 3 The value of percent of control at 10^−7 M was more than 60% or the value of IC50 was more than 200 nM.)

## CN(C)c1nc(N[C@H]2CC[C@@H](NC(=O)CCC3CCCCC3)CC2)nc2c1CCCC2 [compound 971]
[1]
  class: 3 (Class 3 The value of percent of control at 10^−7 M was more than 60% or the value of IC50 was more than 200 nM.)

## CCCc1ccc(NC(=O)[C@H]2CC[C@@H](Nc3ncc(C)c(N(C)C)n3)CC2)cc1 [compound 2785]
[2]
  class: 2 (Class 2: The value of percent of control at 10^−7 M was from 40% to 60% or the value of IC′50 was from 50 nM to 200 nM.)

## Cc1ccc(C(=O)NC[C@H]2CC[C@@H](Nc3nc4c(c(N(C)C)n3)CCCC4)CC2)c(F)c1F [compound 622]
[1]
  class: 3 (Class 3 The value of percent of control at 10^−7 M was more than 60% or the value of IC50 was more than 200 nM.)

## CN(C)c1ccnc(N[C@H]2CC[C@@H](CNC(=O)Nc3ccc(Cl)cc3C(F)(F)F)CC2)n1 [compound 2433]
[4]
  class: 2 (Class 2: The value of percent of control at 10^−7 M was from 40% to 60% or the value of IC′50 was from 50 nM to 200 nM.)

## CN(C)c1nc(N[C@H]2CC[C@@H](NC(=S)NC(=O)c3ccco3)CC2)nc2c1CCCC2 [compound 2038]
[3]
  class: 3 (Class 3 The value of percent of control at 10^−7 M was more than 60% or the value of IC50 was more than 200 nM.)

## CN(C)c1cc(N[C@H]2CC[C@@H](CNC(=O)c3ccc(-c4ccc(Cl)cc4[N+](=O)[O-])o3)CC2)nc2ccccc12 [compound 791]
[1]
  class: 3 (Class 3 The value of percent of control at 10^−7 M was more than 60% or the value of IC50 was more than 200 nM.)

## CCOc1c(Br)cc(Br)cc1CNC[C@H]1CC[C@@H](Nc2nc3c(c(N(C)C)n2)CCCC3)CC1 [compound 1446]
[1]
  class: 3 (Class 3 The value of percent of control at 10^−7 M was more than 60% or the value of IC50 was more than 200 nM.)

## Cc1onc(-c2c(F)cccc2Cl)c1C(=O)N[C@H]1CC[C@@H](Nc2cc(N(C)C)c3ccccc3n2)CC1 [compound 100, 3-(2-chloro-6-fluorophenyl)-N-(cis-4-{[4-(dimethylamino)quinolin-2-yl]amino}cyclohexyl)-5-methylisoxazole-4-carboxamide]
[3]
  class: 1 (Class 1: The value of percent of control at 10^−7 M was less than 40% or the value of IC50 was less than 50 nM.)

## Cc1ccc(NC(=O)N[C@H]2CC[C@@H](Nc3nc4c(c(N(C)C)n3)CCCC4)CC2)cc1 [compound 1796]
[1]
  class: 2 (Class 2: The value of percent of control at 10^−7 M was from 40% to 60% or the value of IC′50 was from 50 nM to 200 nM.)

## CN(C)c1nc(N[C@H]2CC[C@@H](NC(=O)c3scc(S(C)(=O)=O)c3Cl)CC2)nc2c1CCCC2 [compound 1040]
[6]
  class: 3 (Class 3 The value of percent of control at 10^−7 M was more than 60% or the value of IC50 was more than 200 nM.)

## Cc1nc(N[C@H]2CC[C@@H](NC(=O)c3ccc(C#N)cc3)CC2)nc(N(C)C)c1C [compound 2844, 4-cyano-N-(cis-4-{[4-(dimethylamino)-5,6-dimethylpyrimidin-2-yl]amino}cyclohexyl)benzamide]
[2]
  class: 1 (Class 1: The value of percent of control at 10^−7 M was less than 40% or the value of IC50 was less than 50 nM.)

## CN(C)c1ccnc(N[C@H]2CC[C@@H](NC(=O)CC(c3ccccc3)c3ccccc3)CC2)n1 [compound 895]
[1]
  class: 3 (Class 3 The value of percent of control at 10^−7 M was more than 60% or the value of IC50 was more than 200 nM.)

## CN(C)c1cc(N[C@H]2CC[C@@H](CNCc3ccc(Cl)cc3)CC2)nc2ccccc12 [compound 1149]
[6]
  class: 3 (Class 3 The value of percent of control at 10^−7 M was more than 60% or the value of IC50 was more than 200 nM.)

## Cc1nc(N[C@H]2CC[C@@H](NC(=O)c3ccc(C(F)(F)F)nc3)CC2)nc(N(C)C)c1C [compound 2859]
[2]
  class: 2 (Class 2: The value of percent of control at 10^−7 M was from 40% to 60% or the value of IC′50 was from 50 nM to 200 nM.)

## Cc1cnc(N[C@H]2CC[C@@H](C(=O)Nc3cccc(F)c3)CC2)nc1N(C)C [compound 2784, cis-4-{[4-(dimethylamino)-5-methylpyrimidin-2-yl]amino}-N-(3-fluorophenyl)cyclohexanecarboxamide]
[2]
  class: 2 (Class 2: The value of percent of control at 10^−7 M was from 40% to 60% or the value of IC′50 was from 50 nM to 200 nM.)

## CN(C)c1ccnc(N[C@H]2CC[C@@H](NC(=S)Nc3ccccc3-c3ccccc3)CC2)n1 [compound 2335]
[4]
  class: 3 (Class 3 The value of percent of control at 10^−7 M was more than 60% or the value of IC50 was more than 200 nM.)
